From patent US9273095B2, “Antibiotic peptide and preparation method therefor and application therefor” (priority 2011, dated 2016)
Marks after values point to notes of the source that are not given here. Non-standard residues stand in square brackets, D forms with d. Residues, ends and D or L forms follow the SMILES beside them.

Legend:
[1] = tested on: Candida albicans and Escherichia; assay: Therapeutic experiment of injection on mice with multiple mixed infections, survival time; format: in vivo, ICR mice; conditions: for Mean survival Time / average survival time: observed fourteen days; for Mean survival Time / Mortality of mice in different days after infection: n = 20; for average survival time: injection through caudal vena twice a day for three days
Description: There are 60 male and 60 female ICR mice with the weight ranging from 18 g to 22 g. According to their weight, they are randomly divided into 6 groups of 20 mice: blank control group, negative control group, Levofloxacin positive control group, and high, middle and low dose of PL-18 (SEQ ID NO: 1) group. With trinitrophenal marking method, all the mice are raised with ordinary animal feeds in the ordinary animal houses and they can drink water freely. Alternating of light and dark is conducted every 12 hours.
2. Infected Strains: Candida albicans and Escherichia
PL-18 (SEQ ID NO: 1) freeze-dried powder injection (supplied by Jiangsu ProteLight Pharmaceutical & Biotechnology Co., LTD.), Levofloxacin Hydrochloride and Sodium Chloride Injection (supplied by Yangtze River Pharmaceutical Group) and 0.9% Sodium Chloride Injection (supplied by Chifeng Rongjitang Pharmaceutical CO., Ltd.)
(1) The preparation of bacterial suspension is the same as above.
(2) The Candida albicans suspension cultured overnight is diluted to 1×10^6CFU/ml with Sodium Chloride and 5×10^5CFU of which is injected into abdominal cavity of every mouse; the Escherichia suspension cultured overnight is diluted to 2×10^8CFU/ml and 1×10^7CFU of which is injected into abdominal cavity of every mouse to make model with mixed infections.
(3) The blank control group is injected with normal saline into their abdominal cavity, the positive control group is injected with Levofloxacin into their abdominal cavity.
(4) Administration: The drugs are administered according to weight right after the model is ready. All the groups except the blank and the infected negative control group are injected with different dosage of different injections through caudal vena twice a day successively for three days, and they are observed for fourteen days.
(5) Observe death of the animals and record their survival time.

[2] = tested on: red cell suspension from healthy volunteers; assay: Hemolytic activity test; format: cell-based, human; conditions: for Hemolytic activity, absorbancy (OD value) at 570 nm: 4 hours at 37° C., OD higher than 0.1 is hemolytic, n = 3; for hemolytic toxicity (in words): summary of Table 9
Description: (1) Samples are serial diluted with sterile PBS to 1000, 500, 250, 125, 64, 32, 16, 8, 4 μg/ml in turn and spread in 96-well plates, 100 μl per orifice.
(2) We use distilled water as positive control, sterile PBS as negative control and blank orifice with 200 μl PBS solution added. Each concentration above is made in triplicate.
(3) We take 3 ml whole blood from healthy volunteers and washed it with sterile PBS three times to prepare fresh 2% concentration red cell suspension. Then we added 100 μl red cell suspension into each orifice and made them cultured for 4 hours at 37° C. in the incubator. After centrifuged by plate-swashing centrifuge, the supernatant liquid is collected and measured absorbancy (OD value) at a wavelength of 570 nm. Then we compared the hemolytic efficiency of these concentrations.
(4) According to the documents standard, OD value which is higher than 0.1 is hemolytic concentration.

[3] = tested on: Staphylococcus aureus ATCC25923; assay: Anti-infection test of externally-applied agent on skin, viable count; format: in vivo, ICR mice; conditions: for viable count, Liver (1:5) / viable count, Skin (1:10) / viable count, Spleen (1:5) / viable count, Whole blood: 0.1 ml morning and evening for 7 days, n = 10; for inhibition of skin infection (in words): externally-applied agent, twice daily for 7 days, Staphylococcus aureus
Description: (§1) 1. Experimental Strains: Staphylococcus epidermidis ATCC12228 and Staphylococcus aureus ATCC25923
(§2) There are 50 male ICR mice with the weight of 20±2 g. According to their weight, they are randomly divided into 5 groups of 10 mice: negative infected control group, Bactroban positive control group, 1% concentration cream group, 1‰ concentration cream group and blank ground substance group. Each group is raised in the same plastic case. Their blank parts, heads, necks, backs and tails are marked with picric acid marking method. All the mice are raised with ordinary animal feeds in the ordinary animal houses and they could drink water freely. Alternating of light and dark is conducted every 12 hours.
(§3) There are preparation of 1% concentration, 1‰ concentration, and blank ground substance preparation (supplied by Jiangsu ProteLight Pharmaceutical & Biotechnology Co., LTD.) and Bactroban (supplied by SK&F).
(§4) (1) The bacteria strains which preserved in liquid nitrogen are inoculated to MHB plate and cultured overnight at 37° C.
(§5) (2) The solid strains are inoculated to MHB liquid medium and overnight cultured shakily at the speed of 220 rpm at 37° C.
(§6) (3) The bacterial suspension cultured overnight is diluted to 5×10^6CFU/ml and applied in reserve.
(§7) (4) Skin modeling: Mice's back are sheared and depilated by depilatory paste. After the hair off, they are abraded with 0.3 mm-long sandpaper to bleeding and injected 0.1 ml bacterial suspension with the concentration of 5×10^6CFU/ml subcutaneously.
(§8) (5) Administration: All the groups except the negative infected control group are respectively applied different cream with the dosage of 0.1 ml once respectively in the morning and evening for 7 days.
(§9) (6) After 7 days, the visceral organs, blood and infected skin of mice are collected by aseptic method to count viable bacteria.

[4] = tested on: Staphylococcus epidermidis ATCC12228; assay: as above; format: in vivo, ICR mice; conditions: for viable count, Liver (1:5) / viable count, Skin (1:10) / viable count, Spleen (1:5) / viable count, Whole blood: 0.1 ml morning and evening for 7 days, n = 10; for inhibition of skin infection (in words): externally-applied agent, twice daily for 7 days, Staphylococcus epidermidis
Description: as §1, §2, §3, §4, §5, §6, §7, §8, §9

C[C@H]1COc2c(N3CCN(C)CC3)c(F)cc3c(=O)c(C(=O)O)cn1c23 [Levofloxacin, levofloxacin, reference compound]
Mean survival Time ([1]; 30 mg/kg): 3.9* day
Mortality of mice in different days after infection ([1]; day 1, 30 mg/kg): 8
Mortality of mice in different days after infection ([1]; day 2, 30 mg/kg): 6
Mortality of mice in different days after infection ([1]; day 3, 30 mg/kg): 2
Mortality of mice in different days after infection ([1]; day 4, 30 mg/kg): 0
Mortality of mice in different days after infection ([1]; day 5, 30 mg/kg): 0

CC[C@@H](C)[C@@H](NC(=O)[C@@H](CCCCN)NC(=O)[C@@H](CO)NC(=O)[C@@H](Cc1ccccc1)NC(=O)[C@@H](CC(C)C)NC(=O)[C@@H](CCCCN)NC(=O)[C@@H](CCC(=O)O)NC(=O)[C@@H](CC(C)C)NC(=O)[C@@H](CCCNC(=N)N)NC(=O)[C@@H](CCCCN)NC(=O)[C@@H](Cc1ccccc1)NC(C)=O)C(=O)N[C@H](Cc1c[nH]c2ccccc12)C(=O)N[C@H](CC(N)=O)C(=O)N[C@H](Cc1c[nH]c2ccccc12)C(=O)N[C@H](CCCCN)C(N)=O [PL-17] (Ac-[dF][dK][dR][dL][dE][dK][dL][dF][dS][dK][dI][dW][dN][dW][dK]-NH2)
Hemolytic activity, absorbancy (OD value) at 570 nm ([2]; peptide 7.8125 μg/ml): 0.033
Hemolytic activity, absorbancy (OD value) at 570 nm ([2]; peptide 15.625 μg/ml): 0.056
Hemolytic activity, absorbancy (OD value) at 570 nm ([2]; peptide 31.25 μg/ml): 0.063
Hemolytic activity, absorbancy (OD value) at 570 nm ([2]; peptide 62.5 μg/ml): 0.065
Hemolytic activity, absorbancy (OD value) at 570 nm ([2]; peptide 125 μg/ml): 0.078
Hemolytic activity, absorbancy (OD value) at 570 nm ([2]; peptide 250 μg/ml): 0.082
Hemolytic activity, absorbancy (OD value) at 570 nm ([2]; peptide 500 μg/ml): 0.152
Hemolytic activity, absorbancy (OD value) at 570 nm ([2]; peptide 1000 μg/ml): 0.339
hemolytic toxicity (in words) [2]: little hemolytic toxicity

CC(=O)N[C@H](Cc1ccccc1)C(=O)N[C@H](CCCCN)C(=O)N[C@H](CCCCN)C(=O)N[C@H](CC(C)C)C(=O)N[C@H](CCCCN)C(=O)N[C@H](CCCCN)C(=O)N[C@H](CC(C)C)C(=O)N[C@H](Cc1ccccc1)C(=O)N[C@H](CO)C(=O)N[C@H](CCCCN)C(=O)N[C@H](CC(C)C)C(=O)N[C@H](Cc1c[nH]c2ccccc12)C(=O)N[C@H](CC(N)=O)C(=O)N[C@H](Cc1c[nH]c2ccccc12)C(=O)N[C@H](CCCCN)C(N)=O [PL-18] (Ac-[dF][dK][dK][dL][dK][dK][dL][dF][dS][dK][dL][dW][dN][dW][dK]-NH2)
Mean survival Time ([1]; 0.2 mg/kg (low) caudal vena twice a day for three days): 4.4* day
Mean survival Time ([1]; 1 mg/kg (middle) caudal vena twice a day for three days): 5.7** day
curative effect on mice with multiple mixed infection (in words) ([1]; 1 mg/kg dosage injection): best curative effect
Mean survival Time ([1]; 5 mg/kg (high) caudal vena twice a day for three days): 5.3** day
Mortality of mice in different days after infection ([1]; day 1, 0.2 mg/kg (low) caudal vena twice a day for three days): 4
Mortality of mice in different days after infection ([1]; day 1, 1 mg/kg (middle) caudal vena twice a day for three days): 5
Mortality of mice in different days after infection ([1]; day 1, 5 mg/kg (high) caudal vena twice a day for three days): 5
Mortality of mice in different days after infection ([1]; day 2, 0.2 mg/kg (low) caudal vena twice a day for three days): 4
Mortality of mice in different days after infection ([1]; day 2, 1 mg/kg (middle) caudal vena twice a day for three days): 4
Mortality of mice in different days after infection ([1]; day 2, 5 mg/kg (high) caudal vena twice a day for three days): 5
Mortality of mice in different days after infection ([1]; day 3, 0.2 mg/kg (low) caudal vena twice a day for three days): 5
Mortality of mice in different days after infection ([1]; day 3, 1 mg/kg (middle) caudal vena twice a day for three days): 3
Mortality of mice in different days after infection ([1]; day 3, 5 mg/kg (high) caudal vena twice a day for three days): 2
Mortality of mice in different days after infection ([1]; day 4, 0.2 mg/kg (low) caudal vena twice a day for three days): 2
Mortality of mice in different days after infection ([1]; day 4, 1 mg/kg (middle) caudal vena twice a day for three days): 2
Mortality of mice in different days after infection ([1]; day 4, 5 mg/kg (high) caudal vena twice a day for three days): 1
Mortality of mice in different days after infection ([1]; day 5, 0.2 mg/kg (low) caudal vena twice a day for three days): 2
Mortality of mice in different days after infection ([1]; day 5, 1 mg/kg (middle) caudal vena twice a day for three days): 0
Mortality of mice in different days after infection ([1]; day 5, 5 mg/kg (high) caudal vena twice a day for three days): 2
average survival time ([1]; high dosage group): 5.3 days
average survival time ([1]; low dosage group): 4.4 days
average survival time ([1]; middle dosage group): 5.7 days
viable count, Liver (1:5) ([3]; 1% externally-applied agent): 9 CFU/plate
viable count, Skin (1:10) ([3]; 1% externally-applied agent): 997 CFU/plate
viable count, Spleen (1:5) ([3]; 1% externally-applied agent): 8 CFU/plate
viable count, Whole blood ([3]; 1% externally-applied agent): 16 CFU/plate
viable count, Liver (1:5) ([3]; 1‰ externally-applied agent): 11 CFU/plate
viable count, Skin (1:10) ([3]; 1‰ externally-applied agent): 1051 CFU/plate
viable count, Spleen (1:5) ([3]; 1‰ externally-applied agent): 15 CFU/plate
viable count, Whole blood ([3]; 1‰ externally-applied agent): 12 CFU/plate
inhibition of skin infection (in words) [3]: effective
viable count, Liver (1:5) ([4]; 1% externally-applied agent): 17 CFU/plate
viable count, Skin (1:10) ([4]; 1% externally-applied agent): 276 CFU/plate
viable count, Spleen (1:5) ([4]; 1% externally-applied agent): 5 CFU/plate
viable count, Whole blood ([4]; 1% externally-applied agent): 16 CFU/plate
viable count, Liver (1:5) ([4]; 1‰ externally-applied agent): 8 CFU/plate
viable count, Skin (1:10) ([4]; 1‰ externally-applied agent): 425 CFU/plate
viable count, Spleen (1:5) ([4]; 1‰ externally-applied agent): 13 CFU/plate
viable count, Whole blood ([4]; 1‰ externally-applied agent): 19 CFU/plate
inhibition of skin infection (in words) [4]: effective

Ac-FKKLKKLFSKLWNWK-NH2 [PL-13]
Hemolytic activity, absorbancy (OD value) at 570 nm ([2]; peptide 7.8125 μg/ml): 0.043
Hemolytic activity, absorbancy (OD value) at 570 nm ([2]; peptide 15.625 μg/ml): 0.059
Hemolytic activity, absorbancy (OD value) at 570 nm ([2]; peptide 31.25 μg/ml): 0.065
Hemolytic activity, absorbancy (OD value) at 570 nm ([2]; peptide 62.5 μg/ml): 0.090
Hemolytic activity, absorbancy (OD value) at 570 nm ([2]; peptide 125 μg/ml): 0.117
Hemolytic activity, absorbancy (OD value) at 570 nm ([2]; peptide 250 μg/ml): 0.184
Hemolytic activity, absorbancy (OD value) at 570 nm ([2]; peptide 500 μg/ml): 0.220
Hemolytic activity, absorbancy (OD value) at 570 nm ([2]; peptide 1000 μg/ml): 0.310
hemolytic toxicity (in words) [2]: little hemolytic toxicity
viable count, Liver (1:5) ([3]; 1% externally-applied agent): 10 CFU/plate
viable count, Skin (1:10) ([3]; 1% externally-applied agent): 852 CFU/plate
viable count, Spleen (1:5) ([3]; 1% externally-applied agent): 6 CFU/plate
viable count, Whole blood ([3]; 1% externally-applied agent): 8 CFU/plate
viable count, Liver (1:5) ([3]; 1‰ externally-applied agent): 12 CFU/plate
viable count, Skin (1:10) ([3]; 1‰ externally-applied agent): 1005 CFU/plate
viable count, Spleen (1:5) ([3]; 1‰ externally-applied agent): 14 CFU/plate
viable count, Whole blood ([3]; 1‰ externally-applied agent): 11 CFU/plate
inhibition of skin infection (in words) [3]: effective
viable count, Liver (1:5) ([4]; 1% externally-applied agent): 12 CFU/plate
viable count, Skin (1:10) ([4]; 1% externally-applied agent): 369 CFU/plate
viable count, Spleen (1:5) ([4]; 1% externally-applied agent): 5 CFU/plate
viable count, Whole blood ([4]; 1% externally-applied agent): 10 CFU/plate
viable count, Liver (1:5) ([4]; 1‰ externally-applied agent): 10 CFU/plate
viable count, Skin (1:10) ([4]; 1‰ externally-applied agent): 425 CFU/plate
viable count, Spleen (1:5) ([4]; 1‰ externally-applied agent): 17 CFU/plate
viable count, Whole blood ([4]; 1‰ externally-applied agent): 18 CFU/plate
inhibition of skin infection (in words) [4]: effective
